Measured values: the supplement of paper PMC11061612

Columns and labels:
Experiment in all cases: combination Emax (second highest fraction inhibited in the dose matrix, 72 h); higher = more inhibition; extreme values may be limits of the assay
[1] = test system: CHSA8926 (Chondrosarcoma)
Procedure, shortened: (§1)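 After 24 hours at 37°C and 5% CO2 in 1536-well plates, cells in DMEM/F12 or RPMI plus 10% FBS received two-drug dose matrices for 72 hours. Viability came from CellTiter-Glo 2.0 luminescence and was scaled as inhibition, anchored at 0 by vehicle wells and at 1 by blank wells. Combination Emax is taken as the second-highest inhibition in the matrix, and Bliss excess as the observed combination effect less EA + EB − EA·EB, with EA and EB the single-agent effects.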

[2] = test system: JHH-4 (Hepatocellular Carcinoma)
Procedure, shortened: as §1

[3] = test system: RPMI-8226 (Plasma Cell Myeloma)
Procedure, shortened: as §1

[4] = test system: H9 (T-Cell Non-Hodgkin's Lymphoma)
Procedure, shortened: as §1

[5] = test system: HCC1187 (Breast Carcinoma)
Procedure, shortened: as §1

[6] = test system: NCI-H520 (Squamous Cell Lung Carcinoma)
Procedure, shortened: as §1

[7] = test system: IM-95 (Gastric Carcinoma)
Procedure, shortened: as §1

[8] = test system: SUP-B15 (B-Lymphoblastic Leukemia)
Procedure, shortened: as §1

[9] = test system: ESO51 (Esophageal Adenocarcinoma)
Procedure, shortened: as §1

[10] = test system: VMRC-RCZ (Kidney Carcinoma)
Procedure, shortened: as §1

[11] = test system: KU812 (Chronic Myelogenous Leukemia)
Procedure, shortened: as §1

RD (Rhabdomyosarcoma) = test system: RD (Rhabdomyosarcoma)
Procedure, shortened: as §1

[12] = test system: SK-GT-4 (Esophageal Adenocarcinoma)
Procedure, shortened: as §1

[13] = test system: HCC1419 (Breast Carcinoma)
Procedure, shortened: as §1

[14] = test system: KYSE-270 (Esophageal Squamous Cell Carcinoma)
Procedure, shortened: as §1

[15] = test system: T-T (Esophageal Squamous Cell Carcinoma)
Procedure, shortened: as §1

SJSA-1 (Osteosarcoma) = test system: SJSA-1 (Osteosarcoma)
Procedure, shortened: as §1

[16] = test system: KP-3 (Pancreatic Carcinoma)
Procedure, shortened: as §1

[17] = test system: KY821 (Acute Myeloid Leukemia)
Procedure, shortened: as §1

[18] = test system: SNU-398 (Hepatocellular Carcinoma)
Procedure, shortened: as §1

| SMILES | combination Emax [1] | combination Emax [2] | combination Emax [3] | combination Emax [4] | combination Emax [5] | combination Emax [6] | combination Emax [7] | combination Emax [8] | combination Emax [9] | combination Emax [10] | combination Emax [11] | combination Emax (RD (Rhabdomyosarcoma)) | combination Emax [12] | combination Emax [13] | combination Emax [14] | combination Emax [15] | combination Emax (SJSA-1 (Osteosarcoma)) | combination Emax [16] | combination Emax [17] | combination Emax [18] |
| --- | --- | --- | --- | --- | --- | --- | --- | --- | --- | --- | --- | --- | --- | --- | --- | --- | --- | --- | --- | --- |
| CN(C)CCCOc1ccc(-c2ccc3ncc4c(c3c2)n(C2CCOCC2)c(=O)n4C)cn1 [AZD0156] + C=CCn1c(=O)c2cnc(Nc3ccc(N4CCN(C)CC4)cc3)nc2n1-c1cccc(C(C)(C)O)n1 [AZD1775] (first compound max 1 µM, partner max 1 µM) | 0.49 | 0.428 | 0.656 | 0.891 | 0.299 | 0.789 | 0.454 | 0.602 | 0.69 | 0.206 | 0.789 | 0.401 | 0.4 | 0.104 | 0.676 | 0.377 | 0.17 | 0.211 | 0.987 | 0.473 |
| CN(C)CCCOc1ccc(-c2ccc3ncc4c(c3c2)n(C2CCOCC2)c(=O)n4C)cn1 [AZD0156] + CCN(CCO)CCCOc1ccc2c(Nc3cc(CC(=O)Nc4cccc(F)c4)[nH]n3)ncnc2c1 [AZD2811] (first compound max 1 µM, 7x7, partner max 1 µM) | 0.214 | 0.095 | 0.556 | 0.727 | 0.844 | 0.458 | 0.438 | 0.896 | 0.163 | 0.078 | 0.584 | 0.0353 | 0.192 | 0.118 | 0.0944 | 0.0991 | 0.123 | 0.0612 | 0.559 | 0.339 |
| CN(C)CCCOc1ccc(-c2ccc3ncc4c(c3c2)n(C2CCOCC2)c(=O)n4C)cn1 [AZD0156] + C[C@@H]1COCCN1C2=NC(=NC(=C2)C3(CC3)[S@](=N)(=O)C)C4=C5C=CNC5=NC=C4 [AZD6738] (first compound max 1 µM, 7x7, partner max 10 µM) | 0.336 | 0.133 | 0.994 | 0.972 | 0.472 | 0.682 | 0.339 | 0.879 | 0.773 | 0.232 | 0.735 | 0.252 | 0.661 | 0.159 | 0.914 | 0.659 | 0.325 | 0.398 | 0.966 | 0.462 |
